Source: ChEMBL document CHEMBL3751833, “Discovery of potent aryl-substituted 3-[(3-methylpyridine-2-carbonyl) amino]-2,4-dimethyl-benzoic acid EP4 antagonists with improved pharmacokinetic profile” (Bioorg Med Chem Lett, 2016)
Converted amounts (≈) assume the structure as drawn. The source made the active and inactive calls. The calls are words filed in the database; no cut-off is given here.

How the values were obtained:
[1] = molecular target: T1, Prostaglandin E2 receptor EP4 subtype (Homo sapiens, UniProt P35408); test: Antagonist activity at human EP4 receptor expressed in HEK293 cells assessed as inhibition of PGE2-stimulated cAMP production after 1 hr by HTRF assay; assay type: functional, cell-based
[2] = molecular target: T1, Prostaglandin E2 receptor EP4 subtype; test: Antagonist activity at EP4 receptor in LPS-stimulated human whole blood assessed as inhibition of PGE2-induced TNF-alpha release pretreated for 30 mins followed by addition of PGE2 measured after 20 to 24 hrs by immunoassay; assay type: tissue-based
[3] = Aqueous solubility of compound at pH 6 after 20 hrs by HPLC analysis; assay type: physicochemical
[4] = Clearance in rat at 1 mg/kg, iv; assay type: ADME, organism-based; conditions: in vivo
[5] = (§1) AUC in rat at 5 mg/kg, po; assay type: ADME, organism-based; conditions: in vivo
[6] = (§2) Oral bioavailability in rat at 5 mg/kg; assay type: ADME, organism-based; conditions: in vivo
Rattus norvegicus [7] = test: as §1; assay type: ADME, organism-based; conditions: in vivo
Rattus norvegicus [8] = test: as §2; assay type: ADME, organism-based; conditions: in vivo
[9] = Oral bioavailability in rat; assay type: ADME, organism-based; conditions: in vivo
Rattus norvegicus [10] = test: Analgesic activity in […]-induced rat joint pain model assessed as inhibition of differential weight bearing at 5 mg/kg, po measured 30 mins post dose; assay type: functional, organism-based
[11] = molecular target: L-type calcium channel, dihydropyridine binding site (Homo sapiens, UniProt O60840+Q01668+Q13698+Q13936); test: Inhibition of L-type calcium channel dihydropyridine binding site (unknown origin) at 10 uM; assay type: protein assay
[12] = Volume of distribution at steady state in rat at 1 mg/kg, iv and 5 mg/kg, po; assay type: ADME, organism-based; conditions: in vivo, read-out: Vdss
[13] = Volume of distribution at steady state in dog at 1 mg/kg, iv and 5 mg/kg, po; assay type: ADME, organism-based, Canis lupus familiaris; conditions: in vivo, read-out: Vdss
Cytochrome P450 2C8 = Cytochrome P450 2C8 (Homo sapiens, UniProt P10632); test: Inhibition of CYP2C8 (unknown origin); assay type: ADME
Cytochrome P450 2D6 = Cytochrome P450 2D6 (Homo sapiens, UniProt P10635); test: Inhibition of CYP2D6 (unknown origin); assay type: ADME
Cytochrome P450 3A4 = Cytochrome P450 3A4 (Homo sapiens, UniProt P08684); test: Inhibition of CYP3A4 (unknown origin); assay type: ADME
Cytochrome P450 2C19 = Cytochrome P450 2C19 (Homo sapiens, UniProt P33261); test: Inhibition of CYP2C19 (unknown origin); assay type: ADME
Cytochrome P450 2C9 = Cytochrome P450 2C9 (Homo sapiens, UniProt P11712); test: Inhibition of CYP2C9 (unknown origin); assay type: ADME
[14] = molecular target: Voltage-gated inwardly rectifying potassium channel KCNH2 (Homo sapiens, UniProt Q12809); test: Displacement of [3H]astemizole from human ERG upto 100 uM
[15] = AUC in dog at 5 mg/kg, po; assay type: ADME, organism-based, Canis lupus familiaris; conditions: in vivo
[16] = Cmax in rat at 5 mg/kg, po; assay type: ADME, organism-based; design: dose 5 mg/kg, route oral; conditions: in vivo
[17] = Cmax in dog at 5 mg/kg, po; assay type: ADME, organism-based, Canis lupus familiaris; design: dose 5 mg/kg, route oral; conditions: in vivo
[18] = Half life in rat at 5 mg/kg, po; assay type: ADME, organism-based; conditions: in vivo
[19] = Half life in dog at 5 mg/kg, po; assay type: ADME, organism-based, Canis lupus familiaris; conditions: in vivo
[20] = Clearance in dog at 1 mg/kg, iv; assay type: ADME, organism-based, Canis lupus familiaris; conditions: in vivo
[21] = Oral bioavailability in dog at 5 mg/kg; assay type: ADME, organism-based, Canis lupus familiaris; conditions: in vivo
[22] = molecular target: Prostaglandin E2 receptor EP1 subtype (Homo sapiens, UniProt P34995); test: Binding affinity to human EP1 receptor
[23] = molecular target: Prostaglandin E2 receptor EP2 subtype (Homo sapiens, UniProt P43116); test: Binding affinity to human EP2 receptor
[24] = molecular target: Prostaglandin E2 receptor EP3 subtype (Homo sapiens, UniProt P43115); test: Binding affinity to human EP3 receptor
Cytochrome P450 1A2 = Cytochrome P450 1A2 (Homo sapiens, UniProt P05177); test: Inhibition of CYP1A2 (unknown origin); assay type: ADME
Cytochrome P450 2B6 = Cytochrome P450 2B6 (Homo sapiens, UniProt P20813); test: Inhibition of CYP2B6 (unknown origin); assay type: ADME
Rattus norvegicus [25] = test: Analgesic activity in […]-induced po dosed rat joint pain model assessed as inhibition of differential weight bearing measured 30 mins post dose; assay type: functional, organism-based
Rattus norvegicus [26] = test: Antiinflammatory activity in adjuvant-induced arthritis rat model assessed as inhibition of paw swelling at 10 and 30 mg/kg administered 15 days post adjuvant challenge; assay type: functional, organism-based
[27] = molecular target: Adenosine receptor A3 (Homo sapiens) (UniProt P0DMS8); test: Inhibition of human adenosine A3 receptor at 10 uM
[28] = molecular target: Adrenergic receptor alpha-1 (Rattus norvegicus) (UniProt P15823+P23944+P43140); test: Inhibition of rat alpha-1 adrenergic receptor at 10 uM
[29] = molecular target: Adrenergic receptor alpha-2 (Rattus norvegicus) (UniProt P22086+P19328+P22909); test: Inhibition of rat alpha-2 adrenergic receptor at 10 uM
[30] = molecular target: Beta-1 adrenergic receptor (Homo sapiens) (UniProt P08588); test: Inhibition of human beta-1 adrenergic receptor at 10 uM
[31] = molecular target: Beta-2 adrenergic receptor (Homo sapiens) (UniProt P07550); test: Inhibition of human beta-2 adrenergic receptor at 10 uM
[32] = molecular target: D(1A) dopamine receptor (Homo sapiens) (UniProt P21728); test: Inhibition of human dopamine D1 receptor at 10 uM
[33] = molecular target: D(2) dopamine receptor (Homo sapiens) (UniProt P14416); test: Inhibition of human dopamine D2s receptor at 10 uM
[34] = molecular target: Histamine H1 receptor (Homo sapiens) (UniProt P35367); test: Inhibition of human histamine H1 receptor at 10 uM
[35] = molecular target: Muscarinic acetylcholine receptor M2 (Homo sapiens) (UniProt P08172); test: Inhibition of human muscarinic M2 receptor at 10 uM
[36] = molecular target: Mu-type opioid receptor (Homo sapiens) (UniProt P35372); test: Inhibition of human mu opoid receptor at 10 uM
[37] = molecular target: L-type calcium channel, diltiazem binding site (Homo sapiens, UniProt O60840+Q01668+Q13698+Q13936); test: Inhibition of L-type calcium channel diltiazem binding site (unknown origin) at 10 uM; assay type: protein assay
[38] = molecular target: L-type calcium channel, verapamil binding site (Homo sapiens, UniProt O60840+Q01668+Q13698+Q13936); test: Inhibition of L-type calcium channel verapamil binding site (unknown origin) at 10 uM; assay type: protein assay
Rattus norvegicus [39] = species: Rattus norvegicus; test: Inhibition of rat chloride channel at 10 uM
[40] = molecular target: Sodium-dependent noradrenaline transporter (Homo sapiens) (UniProt P23975); test: Inhibition of human Noradrenaline transporter at 10 uM
[41] = molecular target: Acetylcholinesterase (Homo sapiens) (UniProt P22303); test: Inhibition of human acetylcholinesterase at 10 uM

T1 sequence (P35408 whole entry): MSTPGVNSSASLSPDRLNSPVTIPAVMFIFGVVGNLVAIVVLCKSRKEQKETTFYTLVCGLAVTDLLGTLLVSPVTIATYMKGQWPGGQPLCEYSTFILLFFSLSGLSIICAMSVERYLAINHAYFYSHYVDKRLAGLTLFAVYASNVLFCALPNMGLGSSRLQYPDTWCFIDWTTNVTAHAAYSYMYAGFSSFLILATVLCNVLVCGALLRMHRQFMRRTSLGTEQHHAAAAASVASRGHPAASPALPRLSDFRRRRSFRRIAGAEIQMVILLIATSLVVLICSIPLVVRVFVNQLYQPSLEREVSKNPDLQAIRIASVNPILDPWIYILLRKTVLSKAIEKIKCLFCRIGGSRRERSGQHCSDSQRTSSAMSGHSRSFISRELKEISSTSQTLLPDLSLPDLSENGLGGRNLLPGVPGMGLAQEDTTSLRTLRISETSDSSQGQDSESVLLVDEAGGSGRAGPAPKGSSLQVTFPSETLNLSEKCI
Prostaglandin E2 receptor EP1 subtype, sequence (P34995 whole entry): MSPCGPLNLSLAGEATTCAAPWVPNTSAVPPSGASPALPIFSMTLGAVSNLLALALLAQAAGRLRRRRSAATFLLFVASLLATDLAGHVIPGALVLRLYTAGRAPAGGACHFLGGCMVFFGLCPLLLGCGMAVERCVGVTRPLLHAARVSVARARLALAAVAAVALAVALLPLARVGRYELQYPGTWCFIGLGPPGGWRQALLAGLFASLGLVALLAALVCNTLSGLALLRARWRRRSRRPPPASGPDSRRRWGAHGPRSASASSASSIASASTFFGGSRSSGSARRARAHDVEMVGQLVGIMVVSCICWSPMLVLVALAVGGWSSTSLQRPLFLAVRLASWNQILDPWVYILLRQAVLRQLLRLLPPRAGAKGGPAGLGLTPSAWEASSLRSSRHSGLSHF
Prostaglandin E2 receptor EP3 subtype, sequence (P43115 whole entry): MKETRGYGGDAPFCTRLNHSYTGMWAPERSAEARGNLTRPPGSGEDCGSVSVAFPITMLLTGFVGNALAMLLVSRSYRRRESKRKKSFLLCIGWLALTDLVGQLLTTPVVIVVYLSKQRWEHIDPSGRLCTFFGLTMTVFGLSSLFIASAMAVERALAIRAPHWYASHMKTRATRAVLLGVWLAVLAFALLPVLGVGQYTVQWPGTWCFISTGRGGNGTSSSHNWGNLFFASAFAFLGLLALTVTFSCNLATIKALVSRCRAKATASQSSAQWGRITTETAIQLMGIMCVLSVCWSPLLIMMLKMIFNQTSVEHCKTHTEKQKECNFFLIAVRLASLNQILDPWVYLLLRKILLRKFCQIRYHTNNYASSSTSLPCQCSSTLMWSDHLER
Prostaglandin E2 receptor EP2 subtype, sequence (P43116 whole entry): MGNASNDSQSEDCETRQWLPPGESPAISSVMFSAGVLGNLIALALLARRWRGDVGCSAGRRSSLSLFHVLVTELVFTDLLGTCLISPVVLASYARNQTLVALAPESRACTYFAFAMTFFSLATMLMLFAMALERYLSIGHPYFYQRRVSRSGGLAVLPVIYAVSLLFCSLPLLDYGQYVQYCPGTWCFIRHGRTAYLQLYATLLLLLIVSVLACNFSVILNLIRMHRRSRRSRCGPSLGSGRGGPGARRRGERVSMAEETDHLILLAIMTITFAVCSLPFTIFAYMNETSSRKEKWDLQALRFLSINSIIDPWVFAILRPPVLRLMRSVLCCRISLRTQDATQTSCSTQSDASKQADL
Cytochrome P450 2D6, sequence (P10635 whole entry): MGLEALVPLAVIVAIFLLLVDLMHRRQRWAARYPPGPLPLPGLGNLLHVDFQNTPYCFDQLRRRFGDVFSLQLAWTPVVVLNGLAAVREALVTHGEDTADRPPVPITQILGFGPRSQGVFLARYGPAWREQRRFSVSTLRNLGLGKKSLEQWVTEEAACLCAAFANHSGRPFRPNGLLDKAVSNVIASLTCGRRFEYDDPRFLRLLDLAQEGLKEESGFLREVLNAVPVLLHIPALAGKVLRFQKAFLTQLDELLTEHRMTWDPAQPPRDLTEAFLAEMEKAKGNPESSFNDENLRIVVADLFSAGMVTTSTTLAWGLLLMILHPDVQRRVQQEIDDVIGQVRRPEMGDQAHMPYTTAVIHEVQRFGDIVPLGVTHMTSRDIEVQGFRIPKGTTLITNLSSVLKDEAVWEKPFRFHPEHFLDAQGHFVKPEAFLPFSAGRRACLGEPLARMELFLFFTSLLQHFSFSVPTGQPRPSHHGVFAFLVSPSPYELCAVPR
Cytochrome P450 2C19, sequence (P33261 whole entry): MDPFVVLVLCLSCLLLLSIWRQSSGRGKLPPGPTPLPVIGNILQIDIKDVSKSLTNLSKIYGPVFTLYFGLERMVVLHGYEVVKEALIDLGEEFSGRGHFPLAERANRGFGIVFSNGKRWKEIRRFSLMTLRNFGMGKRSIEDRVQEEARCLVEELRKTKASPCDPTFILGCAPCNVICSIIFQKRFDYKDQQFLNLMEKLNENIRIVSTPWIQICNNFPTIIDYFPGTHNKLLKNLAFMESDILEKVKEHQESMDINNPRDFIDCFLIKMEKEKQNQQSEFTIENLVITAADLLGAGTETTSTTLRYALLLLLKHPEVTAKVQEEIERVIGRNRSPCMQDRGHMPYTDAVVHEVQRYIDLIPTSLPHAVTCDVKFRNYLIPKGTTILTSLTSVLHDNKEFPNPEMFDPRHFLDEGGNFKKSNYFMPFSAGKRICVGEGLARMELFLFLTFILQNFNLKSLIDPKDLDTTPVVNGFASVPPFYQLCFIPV
Beta-2 adrenergic receptor (Homo sapiens), sequence (P07550 whole entry, looked up): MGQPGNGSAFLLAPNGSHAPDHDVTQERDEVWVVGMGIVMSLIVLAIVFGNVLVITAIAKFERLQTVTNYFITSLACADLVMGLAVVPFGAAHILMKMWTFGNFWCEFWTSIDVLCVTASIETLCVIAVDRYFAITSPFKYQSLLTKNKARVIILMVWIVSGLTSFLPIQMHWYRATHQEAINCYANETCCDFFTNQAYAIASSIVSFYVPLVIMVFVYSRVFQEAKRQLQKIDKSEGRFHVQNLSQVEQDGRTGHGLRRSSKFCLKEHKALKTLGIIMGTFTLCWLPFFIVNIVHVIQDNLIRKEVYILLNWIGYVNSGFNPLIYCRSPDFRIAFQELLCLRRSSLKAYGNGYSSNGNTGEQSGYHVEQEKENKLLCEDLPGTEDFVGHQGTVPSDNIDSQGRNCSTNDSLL
Voltage-gated inwardly rectifying potassium channel KCNH2, sequence (Q12809 whole entry): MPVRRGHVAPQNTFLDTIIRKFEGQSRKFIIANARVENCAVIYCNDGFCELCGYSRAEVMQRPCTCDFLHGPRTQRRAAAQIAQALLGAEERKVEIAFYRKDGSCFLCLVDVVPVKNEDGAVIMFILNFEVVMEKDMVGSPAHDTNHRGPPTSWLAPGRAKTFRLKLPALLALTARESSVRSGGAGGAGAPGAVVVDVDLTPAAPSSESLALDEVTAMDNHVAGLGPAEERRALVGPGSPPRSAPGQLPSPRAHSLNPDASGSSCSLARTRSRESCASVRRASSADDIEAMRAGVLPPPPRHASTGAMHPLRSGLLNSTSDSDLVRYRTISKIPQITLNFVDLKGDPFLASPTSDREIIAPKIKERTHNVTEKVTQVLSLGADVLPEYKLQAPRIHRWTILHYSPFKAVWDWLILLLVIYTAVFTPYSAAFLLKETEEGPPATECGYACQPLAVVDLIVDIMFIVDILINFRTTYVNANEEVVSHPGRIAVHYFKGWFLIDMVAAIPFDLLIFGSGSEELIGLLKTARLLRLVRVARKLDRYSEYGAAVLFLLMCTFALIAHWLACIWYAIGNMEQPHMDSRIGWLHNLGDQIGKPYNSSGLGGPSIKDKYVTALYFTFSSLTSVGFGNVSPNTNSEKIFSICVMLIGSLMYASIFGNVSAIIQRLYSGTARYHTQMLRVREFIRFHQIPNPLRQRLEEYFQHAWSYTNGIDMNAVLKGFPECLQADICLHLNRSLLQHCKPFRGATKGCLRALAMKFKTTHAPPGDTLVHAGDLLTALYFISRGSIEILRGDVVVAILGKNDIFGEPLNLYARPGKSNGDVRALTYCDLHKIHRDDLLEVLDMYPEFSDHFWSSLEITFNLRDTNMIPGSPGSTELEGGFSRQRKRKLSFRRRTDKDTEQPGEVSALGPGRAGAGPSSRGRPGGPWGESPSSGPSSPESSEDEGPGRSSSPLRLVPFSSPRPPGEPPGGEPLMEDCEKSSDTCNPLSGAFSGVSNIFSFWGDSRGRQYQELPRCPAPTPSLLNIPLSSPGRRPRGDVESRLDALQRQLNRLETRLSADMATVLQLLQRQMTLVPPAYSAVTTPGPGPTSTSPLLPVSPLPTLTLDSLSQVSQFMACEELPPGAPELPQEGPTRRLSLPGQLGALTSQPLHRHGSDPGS
Histamine H1 receptor (Homo sapiens), sequence (P35367 whole entry): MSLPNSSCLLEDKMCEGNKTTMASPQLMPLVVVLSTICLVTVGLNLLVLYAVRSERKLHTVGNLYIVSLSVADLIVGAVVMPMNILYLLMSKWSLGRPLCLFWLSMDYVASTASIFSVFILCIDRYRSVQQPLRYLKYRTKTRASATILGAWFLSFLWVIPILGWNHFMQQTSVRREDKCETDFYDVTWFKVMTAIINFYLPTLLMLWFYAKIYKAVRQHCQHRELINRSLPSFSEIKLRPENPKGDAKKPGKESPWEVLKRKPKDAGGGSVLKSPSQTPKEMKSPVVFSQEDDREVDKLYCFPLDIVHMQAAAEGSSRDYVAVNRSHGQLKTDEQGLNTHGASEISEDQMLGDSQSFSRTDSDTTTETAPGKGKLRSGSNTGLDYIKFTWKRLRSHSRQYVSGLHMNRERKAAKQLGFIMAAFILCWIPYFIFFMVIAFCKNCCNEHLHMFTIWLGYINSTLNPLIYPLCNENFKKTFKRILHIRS

Cc1ccc(-c2cccc(Cl)c2)nc1C(=O)Nc1c(C)ccc(C(=O)O)c1C
IC50 [1]: 0.00156 µM | IC50 [2]: 0.637 µM

Cc1ccc(C(=O)O)c(C)c1NC(=O)c1nc(-c2cccc(CO)c2)ccc1C(F)(F)F
IC50 [1]: 0.00194 µM | IC50 [2]: 0.059 µM | solubility at 20 h [3]: 0.029 mg/mL (≈ 65.3 µM) | clearance [4]: 0.42 L/h/kg | AUC [5]: 1.54 µg·h/mL | bioavailability [6]: 13%

Cc1ccc(C(=O)O)c(C)c1NC(=O)c1cc(-c2cccc(CO)c2)ccc1F
IC50 [1]: 0.00449 µM | IC50 [2]: 0.0724 µM | solubility at 20 h [3]: 0.709 mg/mL (≈ 1800 µM) | AUC (Rattus norvegicus [7]): 0.994 µg·h/mL | F (Rattus norvegicus [8]): 11%

Cc1ccc(C(=O)O)c(C)c1NC(=O)c1cc(-c2cccc(CO)c2)cc2ccccc12
bioavailability [9]: 6%

Cc1ccc(-c2cccc(CO)c2)cc1C(=O)Nc1c(C)ccc(C(=O)O)c1C
IC50 [2]: 0.0595 µM | solubility at 20 h [3]: 0.783 mg/mL (≈ 2010 µM) | clearance [4]: 0.9 L/h/kg | AUC [5]: 0.375 µg·h/mL | bioavailability [6]: 7%

Cc1ccc(-c2cccc(CO)c2)nc1C(=O)Nc1c(C)ccc(C(=O)O)c1C
inhibition (Rattus norvegicus [10]): Active | inhibition at 10 µM [11]: -46% | Vd [12]: 0.16 L/kg | Vd [13]: 0.97 L/kg | IC50 (Cytochrome P450 2C8): > 10 µM | IC50 (Cytochrome P450 2D6): > 10 µM | IC50 (Cytochrome P450 3A4): > 10 µM | IC50 (Cytochrome P450 2C19): > 10 µM | IC50 (Cytochrome P450 2C9): > 10 µM | IC50 [2]: 0.0387 µM | inhibition (INH) [14]: Not Active | solubility at 20 h [3]: 0.242 mg/mL (≈ 620 µM) | clearance [4]: 0.132 L/h/kg | AUC [5]: 8.52 µg·h/mL | bioavailability [6]: 22% | AUC [15]: 10.9 µg·h/mL | Cmax [16]: 1.64 µg/mL | Cmax [17]: 3.82 µg/mL | half-life [18]: 2.1 h | half-life [19]: 1.1 h | clearance [20]: 0.222 L/h/kg | bioavailability [21]: 48% | IC50 [22]: > 25 µM | Ki [22]: > 17.5 µM | IC50 [23]: > 25 µM | Ki [23]: > 18.9 µM | IC50 [24]: > 25 µM | Ki [24]: > 14 µM | IC50 (Cytochrome P450 1A2): > 10 µM | IC50 (Cytochrome P450 2B6): > 10 µM | inhibition (Rattus norvegicus [25]): Dose-dependent effect | inhibition (Rattus norvegicus [26]): Active | inhibition [27]: -7% | inhibition [28]: -3% | inhibition [29]: -5% | inhibition [30]: 1% | inhibition [31]: 9% | inhibition [32]: 0% | inhibition [33]: -3% | inhibition [34]: 5% | inhibition [35]: 11% | inhibition [36]: -6% | inhibition at 10 µM [37]: -7% | inhibition at 10 µM [38]: -10% | inhibition (Rattus norvegicus [39]): -6% | inhibition [40]: -1% | inhibition [41]: -2%
